Data: PubChem BioAssay (NCI)
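Following 48 hours of exposure in 96-well plates, responses at five concentrations were used to interpolate endpoints linearly. TGI denotes the concentration required for complete inhibition of growth.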

Tests used:
Experiment in all cases: DTP human tumour cell line panel, 48 h
U251 CNS = test system: U251 CNS
HOP-92 NSCLC = test system: HOP-92 NSCLC
PC-3 prostate = test system: PC-3 prostate
SN12C renal = test system: SN12C renal
IGROV1 ovarian = test system: IGROV1 ovarian
NCI-H460 lung = test system: NCI-H460 lung
HCT-116 colon = test system: HCT-116 colon
OVCAR-5 ovarian = test system: OVCAR-5 ovarian
CAKI-1 renal = test system: CAKI-1 renal
MDA-MB-231 breast = test system: MDA-MB-231 breast
TK-10 renal = test system: TK-10 renal
UO-31 renal = test system: UO-31 renal
SNB-75 CNS = test system: SNB-75 CNS
EKVX NSCLC = test system: EKVX NSCLC
NCI-H522 lung = test system: NCI-H522 lung
SK-OV-3 ovarian = test system: SK-OV-3 ovarian
SF-295 CNS = test system: SF-295 CNS
SW-620 colon = test system: SW-620 colon
HS 578T breast = test system: HS 578T breast
OVCAR-4 ovarian = test system: OVCAR-4 ovarian
DU-145 prostate = test system: DU-145 prostate
BT-549 breast = test system: BT-549 breast
NCI-H226 lung = test system: NCI-H226 lung
MOLT-4 leukemia = test system: MOLT-4 leukemia
ACHN renal = test system: ACHN renal
SR leukemia = test system: SR leukemia
OVCAR-3 ovarian = test system: OVCAR-3 ovarian
HOP-62 NSCLC = test system: HOP-62 NSCLC
HL-60(TB) leukemia = test system: HL-60(TB) leukemia
NCI/ADR-RES ovarian = test system: NCI/ADR-RES ovarian
T-47D breast = test system: T-47D breast
786-0 renal = test system: 786-0 renal
UACC-62 melanoma = test system: UACC-62 melanoma
M14 melanoma = test system: M14 melanoma
COLO 205 colon = test system: COLO 205 colon
HT29 colon = test system: HT29 colon
OVCAR-8 ovarian = test system: OVCAR-8 ovarian
HCT-15 colon = test system: HCT-15 colon
SF-539 CNS = test system: SF-539 CNS
MCF7 breast = test system: MCF7 breast
RXF 393 renal = test system: RXF 393 renal
HCC-2998 colon = test system: HCC-2998 colon
MDA-MB-435 = test system: MDA-MB-435
A498 renal = test system: A498 renal
MALME-3M melanoma = test system: MALME-3M melanoma
KM12 colon = test system: KM12 colon
SK-MEL-5 melanoma = test system: SK-MEL-5 melanoma
SK-MEL-28 melanoma = test system: SK-MEL-28 melanoma
UACC-257 melanoma = test system: UACC-257 melanoma
A549 NSCLC = test system: A549 NSCLC
SK-MEL-2 melanoma = test system: SK-MEL-2 melanoma
MDA-N = test system: MDA-N
CCRF-CEM leukemia = test system: CCRF-CEM leukemia
RPMI-8226 leukemia = test system: RPMI-8226 leukemia
SNB-19 CNS = test system: SNB-19 CNS
SF-268 CNS = test system: SF-268 CNS
K-562 leukemia = test system: K-562 leukemia
NCI-H23 lung = test system: NCI-H23 lung
LOX IMVI melanoma = test system: LOX IMVI melanoma

N=C(N)c1ccc(N=Nc2c(O)c(C(=O)Nc3ccccc3)cc3ccccc23)cc1
TGI (U251 CNS): > 63.1 µM | TGI (HOP-92 NSCLC): 33.8 µM | TGI (PC-3 prostate): > 89.2 µM | TGI (SN12C renal): 54.5 µM | TGI (IGROV1 ovarian): > 74.6 µM | TGI (NCI-H460 lung): > 75.3 µM | TGI (HCT-116 colon): 12.5 µM | TGI (OVCAR-5 ovarian): > 62.4 µM | TGI (CAKI-1 renal): > 100 µM | TGI (MDA-MB-231 breast): 22.4 µM | TGI (TK-10 renal): > 68 µM | TGI (UO-31 renal): > 100 µM | TGI (SNB-75 CNS): 52.2 µM | TGI (EKVX NSCLC): 41.9 µM | TGI (NCI-H522 lung): 34.5 µM | TGI (SK-OV-3 ovarian): > 90.8 µM | TGI (SF-295 CNS): > 100 µM | TGI (SW-620 colon): > 100 µM | TGI (HS 578T breast): > 85.5 µM | TGI (OVCAR-4 ovarian): 33.1 µM | TGI (DU-145 prostate): > 100 µM | TGI (BT-549 breast): > 100 µM | TGI (NCI-H226 lung): > 100 µM | TGI (MOLT-4 leukemia): 8.33 µM | TGI (ACHN renal): > 53.6 µM | TGI (SR leukemia): > 75.8 µM | TGI (OVCAR-3 ovarian): > 53.3 µM | TGI (HOP-62 NSCLC): 41 µM | TGI (HL-60(TB) leukemia): 55.1 µM | TGI (NCI/ADR-RES ovarian): > 100 µM | TGI (T-47D breast): 38.2 µM | TGI (786-0 renal): 30.2 µM | TGI (UACC-62 melanoma): > 100 µM | TGI (M14 melanoma): > 100 µM | TGI (COLO 205 colon): > 76.9 µM | TGI (HT29 colon): 42.4 µM | TGI (OVCAR-8 ovarian): 34.5 µM | TGI (HCT-15 colon): > 48.8 µM | TGI (SF-539 CNS): 43 µM | TGI (MCF7 breast): 41.7 µM | TGI (RXF 393 renal): > 68.4 µM | TGI (HCC-2998 colon): > 59.7 µM | TGI (MDA-MB-435): > 100 µM | TGI (A498 renal): > 100 µM | TGI (MALME-3M melanoma): 97.3 µM | TGI (KM12 colon): 29.9 µM | TGI (SK-MEL-5 melanoma): > 49.6 µM | TGI (SK-MEL-28 melanoma): > 100 µM | TGI (UACC-257 melanoma): > 100 µM | TGI (A549 NSCLC): > 100 µM | TGI (SK-MEL-2 melanoma): > 100 µM | TGI (MDA-N): > 100 µM | TGI (CCRF-CEM leukemia): 5.92 µM | TGI (RPMI-8226 leukemia): 77.7 µM | TGI (SNB-19 CNS): 51.5 µM | TGI (SF-268 CNS): 55.4 µM | TGI (K-562 leukemia): > 80.4 µM | TGI (NCI-H23 lung): 76.1 µM

Clc1ccc(C2=CC(c3ccccc3)N3C(=N[C@H]4CCCC[C@@H]43)N2)cc1 (some centres not stated)
TGI (U251 CNS): 17.2 µM | TGI (HOP-92 NSCLC): 17.2 µM | TGI (PC-3 prostate): 19.5 µM | TGI (IGROV1 ovarian): 13.6 µM | TGI (NCI-H460 lung): 8.72 µM | TGI (LOX IMVI melanoma): 19.7 µM | TGI (HCT-116 colon): 11.6 µM | TGI (OVCAR-5 ovarian): 23.6 µM | TGI (CAKI-1 renal): 26.9 µM | TGI (MDA-MB-231 breast): 22.1 µM | TGI (TK-10 renal): 20 µM | TGI (UO-31 renal): 22.9 µM | TGI (SNB-75 CNS): 13.6 µM | TGI (EKVX NSCLC): 17.4 µM | TGI (SK-OV-3 ovarian): 27.9 µM | TGI (SF-295 CNS): 20.3 µM | TGI (SW-620 colon): 15.4 µM | TGI (HS 578T breast): 23.6 µM | TGI (OVCAR-4 ovarian): 18.4 µM | TGI (DU-145 prostate): 20.7 µM | TGI (BT-549 breast): 21.3 µM | TGI (NCI-H226 lung): 23 µM | TGI (MOLT-4 leukemia): 12.5 µM | TGI (ACHN renal): 17.8 µM | TGI (SR leukemia): 5.98 µM | TGI (OVCAR-3 ovarian): 19.3 µM | TGI (HL-60(TB) leukemia): 7.79 µM | TGI (NCI/ADR-RES ovarian): 19.6 µM | TGI (T-47D breast): 21.6 µM | TGI (786-0 renal): 10.9 µM | TGI (UACC-62 melanoma): 18.6 µM | TGI (M14 melanoma): 10.5 µM | TGI (COLO 205 colon): 4.23 µM | TGI (HT29 colon): 10.2 µM | TGI (OVCAR-8 ovarian): 11.4 µM | TGI (HCT-15 colon): 15.5 µM | TGI (SF-539 CNS): 19.6 µM | TGI (MCF7 breast): 13.2 µM | TGI (RXF 393 renal): 8.44 µM | TGI (HCC-2998 colon): 5.08 µM | TGI (MDA-MB-435): 20.4 µM | TGI (A498 renal): 22.2 µM | TGI (MALME-3M melanoma): 14.5 µM | TGI (KM12 colon): 8.79 µM | TGI (SK-MEL-5 melanoma): 3.35 µM | TGI (SK-MEL-28 melanoma): 11 µM | TGI (UACC-257 melanoma): 25.7 µM | TGI (A549 NSCLC): 18.4 µM | TGI (SK-MEL-2 melanoma): 27.2 µM | TGI (MDA-N): 18.9 µM | TGI (CCRF-CEM leukemia): > 100 µM | TGI (RPMI-8226 leukemia): 7.02 µM | TGI (SNB-19 CNS): 17.6 µM | TGI (SF-268 CNS): 25.2 µM | TGI (K-562 leukemia): > 100 µM | TGI (NCI-H23 lung): 20.6 µM

Cc1cc(C)nc(NS(=O)(=O)c2ccc(NC(=O)c3ccc4nc5ccccc5c(Nc5ccc(S(=O)(=O)N=C(N)N)cc5)c4c3)cc2)n1
TGI (U251 CNS): > 100 µM | TGI (HOP-92 NSCLC): > 100 µM | TGI (PC-3 prostate): > 100 µM | TGI (SN12C renal): > 100 µM | TGI (IGROV1 ovarian): > 100 µM | TGI (NCI-H460 lung): > 100 µM | TGI (LOX IMVI melanoma): > 100 µM | TGI (HCT-116 colon): > 100 µM | TGI (OVCAR-5 ovarian): > 100 µM | TGI (CAKI-1 renal): > 100 µM | TGI (MDA-MB-231 breast): > 100 µM | TGI (TK-10 renal): > 100 µM | TGI (UO-31 renal): > 100 µM | TGI (SNB-75 CNS): > 100 µM | TGI (EKVX NSCLC): > 100 µM | TGI (NCI-H522 lung): > 100 µM | TGI (SK-OV-3 ovarian): > 100 µM | TGI (SF-295 CNS): > 100 µM | TGI (SW-620 colon): > 100 µM | TGI (HS 578T breast): > 100 µM | TGI (OVCAR-4 ovarian): > 100 µM | TGI (DU-145 prostate): > 100 µM | TGI (BT-549 breast): > 100 µM | TGI (NCI-H226 lung): > 100 µM | TGI (MOLT-4 leukemia): > 100 µM | TGI (ACHN renal): > 100 µM | TGI (SR leukemia): > 100 µM | TGI (OVCAR-3 ovarian): > 100 µM | TGI (HOP-62 NSCLC): > 100 µM | TGI (HL-60(TB) leukemia): > 100 µM | TGI (NCI/ADR-RES ovarian): > 100 µM | TGI (T-47D breast): > 100 µM | TGI (786-0 renal): > 100 µM | TGI (UACC-62 melanoma): > 100 µM | TGI (M14 melanoma): > 100 µM | TGI (COLO 205 colon): > 100 µM | TGI (HT29 colon): > 100 µM | TGI (OVCAR-8 ovarian): > 100 µM | TGI (HCT-15 colon): > 100 µM | TGI (SF-539 CNS): > 100 µM | TGI (MCF7 breast): > 100 µM | TGI (RXF 393 renal): > 100 µM | TGI (HCC-2998 colon): > 100 µM | TGI (MDA-MB-435): > 100 µM | TGI (MALME-3M melanoma): > 100 µM | TGI (KM12 colon): > 100 µM | TGI (SK-MEL-5 melanoma): > 100 µM | TGI (SK-MEL-28 melanoma): > 100 µM | TGI (UACC-257 melanoma): > 100 µM | TGI (A549 NSCLC): > 100 µM | TGI (SK-MEL-2 melanoma): > 100 µM | TGI (MDA-N): > 100 µM | TGI (CCRF-CEM leukemia): > 100 µM | TGI (RPMI-8226 leukemia): > 100 µM | TGI (SNB-19 CNS): > 100 µM | TGI (SF-268 CNS): > 100 µM | TGI (K-562 leukemia): > 100 µM | TGI (NCI-H23 lung): > 100 µM
